# Test results reported in ChEMBL document CHEMBL3044756, “Distribution of trunk-injected ¹⁴C-imidacloprid in ash trees and effects on emerald ash borer (Coleoptera: Buprestidae) adults” (2009).
# How the values were obtained:
# Type in all cases: functional
# Agrilus planipennis [1] = experiment: Insecticidal activity against Agrilus planipennis infected ash trees assessed as mortality at 25 uCi treated by trunk injection measured after 45 days
# Agrilus planipennis [2] = experiment: Insecticidal activity against Agrilus planipennis infected ash trees assessed as mortality at 25 uCi treated by trunk injection measured after 21 days
# Agrilus planipennis [3] = experiment: Insecticidal activity against Agrilus planipennis isolated from 21 days after 25 uCi compound treated by trunk injected ash tree leaves assessed as mortality at 64 ug/g
# Agrilus planipennis [4] = experiment: Insecticidal activity against Agrilus planipennis isolated from 21 days after 25 uCi compound treated by trunk injected ash tree leaves assessed as mortality at 0.55 to 60 ug/g
# Agrilus planipennis [5] = experiment: Insecticidal activity against Agrilus planipennis isolated from 21 days after 25 uCi compound treated by trunk injected ash tree leaves assessed as mortality measured after 3 days of feeding
# Agrilus planipennis [6] = experiment: Insecticidal activity against Agrilus planipennis isolated from 45 days after 25 uCi compound treated by trunk injected ash tree leaves assessed as mortality measured after 3 days of feeding
smiles,measurement,setting,value
O=[N+]([O-])/N=C1\NCCN1Cc1ccc(Cl)nc1 [IMIDACLOPRID],Activity,Agrilus planipennis [1],17%
same,Activity,Agrilus planipennis [2],11%
same,Activity,Agrilus planipennis [3],70%
same,Activity,Agrilus planipennis [4],11%
same,Activity,Agrilus planipennis [5],44%
same,Activity,Agrilus planipennis [6],70%
